Data as given in ChEMBL document CHEMBL1148502, “Carbonic anhydrase inhibitors: inhibition of the cytosolic human isozyme VII with anions” (Bioorg Med Chem Lett, 2006).
Values joined by “and” are separate entries in the source; they are usually repeats but may differ in a detail not shown here. Equal values may be shown once.

How the values were obtained:
Carbonic anhydrase 7 = Carbonic anhydrase 7 (Homo sapiens, UniProt P43166)
Description: Inhibition of human recombinant CA7

[1] = Selectivity for human CA7 over murine CA13
Homo sapiens [2] = organism: Homo sapiens; experiment: Selectivity for human CA7 over human CA1
Homo sapiens [3] = organism: Homo sapiens; experiment: Selectivity for human CA7 over human CA2

Chain of Carbonic anhydrase 7 (P43166 whole entry): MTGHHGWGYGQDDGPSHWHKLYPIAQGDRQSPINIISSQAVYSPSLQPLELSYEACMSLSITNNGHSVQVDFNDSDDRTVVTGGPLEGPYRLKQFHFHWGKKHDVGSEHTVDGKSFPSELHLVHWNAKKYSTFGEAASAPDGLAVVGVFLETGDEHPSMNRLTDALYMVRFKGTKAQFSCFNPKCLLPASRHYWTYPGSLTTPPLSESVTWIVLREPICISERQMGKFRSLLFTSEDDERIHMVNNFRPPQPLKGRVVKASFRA

Q: Which Ki (Carbonic anhydrase 7) does the source give for `O=C(O)O` [BICARBONATE] here?
A: Its Ki is 270 µM and 160 µM.

Q: For `Br` [BROMIDE], which Ki (Carbonic anhydrase 7) is on record?
A: The Ki was 1060 µM.

Q: Which Ki (Carbonic anhydrase 7) does the source give for `N#CO` [CYANATE] here?
A: Its Ki is 15200 µM.

Q: For `F` [FLUORIDE ION], which Ki (Carbonic anhydrase 7) is on record?
A: The Ki was 1240 µM.

Q: With `Cl` [HYDROCHLORIC ACID] as the compound, how does the Ki (Carbonic anhydrase 7) read?
A: The Ki was 1840 µM.

Q: With `S` [HYDROGEN SULFIDE] as the compound, how does the Ki (Carbonic anhydrase 7) read?
A: The Ki was 1240 µM.

Q: Which Ki (Carbonic anhydrase 7) does the source give for `I` [IODIDE] here?
A: Its Ki is 250 µM.

Q: For `O=[N+]([O-])O` [NITRIC ACID], which Ki (Carbonic anhydrase 7) is on record?
A: The Ki was 190 µM.

Q: Which Ki (Carbonic anhydrase 7) does the source give for `O=NO` [NITROUS ACID] here?
A: Its Ki is 1780 µM.

Q: Which Selectivity ratio [1] does the source give for `OB(O)c1ccccc1` [PHENYLBORONIC ACID] here?
A: The Selectivity ratio was 343.

Q: What about the Ki (Carbonic anhydrase 7) of the same compound?
A: Its Ki is 8.3 µM.

Q: What about the Selectivity ratio (Homo sapiens [2]) of the same compound?
A: Its Selectivity ratio is 7060.

Q: What about the Selectivity ratio (Homo sapiens [3]) of the same compound?
A: The Selectivity ratio was 2780.

Q: Which Ki (Carbonic anhydrase 7) does the source give for `NS(=O)(=O)O` [SULFAMATE] here?
A: The Ki was 9.5 µM.

Q: Which Ki (Carbonic anhydrase 7) does the source give for `O=S(=O)(O)O` [SULFURIC ACID] here?
A: The Ki was 1380 µM.

Q: With `O=S(O)O` [SULFUROUS ACID] as the compound, how does the Ki (Carbonic anhydrase 7) read?
A: Its Ki is 7300 µM.

Q: For `N#CS` [THIOCYANIC ACID], which Ki (Carbonic anhydrase 7) is on record?
A: Its Ki is 170 µM.
